Experimental data published in patent publication US20210000917A1, “METHODS AND COMPOSITION FOR THE TREATMENT OF ALLERGIC ASTHMA” (INSERM (Institut National de la Santé et de la Recherche …, priority 2018, published 2021).

B1: Der p 2.2: polypeptide consisting of the amino acid sequence 71 to 146 of SEQ ID NO: 1 (Der p 2 fragment) (protein, listed as Dermatophagoides pteronyssinus)
chain: IKASIDGLEVDVPGIDPNACHYMKCPLVKGQQYDIKYTWNVPKIAPKSENVVVTVKVMGDDGVLACAIATHAKIRD

Tests used:
[1] = test system: mouse model of HDM-induced asthma; test: Airway hyperresponsiveness measurement (flexiVent, methacholine) in mouse model of HDM-induced asthma; type: in vivo, BALB/c female mice; settings: for respiratory function (airway resistances and elastance to increasing doses of methacholine): 20 μg peptide in Alum subcutaneously on day 30 and day 34, measured day 38, vs asthmatic-like (HDM) mice
Method: (§1) BALB/c female mice aged 6 to 8 weeks were purchased from Charles River Breeding Laboratories and used for all experiments. The animals were housed in UTE IRS-UN platform (Nantes, France). The mice were maintained under specific pathogen-free, temperature-controlled conditions under a strict 12-hour light-dark cycle and were given free access to food and water. The mice were sensitized on days 0, 7, 14 and 21 by percutaneous application of 500 μg of total extract of Dermatophagoïdes farinae (HDM) (Stallergenes, Antony, France) in 20 μl of dimethylsulfoxide (Sigma- Aldrich, St Louis, Mo.) on the ears without any synthetic adjuvant. The mice were challenged intranasally with 250 μg of HDM (House Dust Mite) in 40 μl of sterile PBS on day 27, 28 and 29 to induce asthma and again on days 35, 36 and 37 to induce asthma exacerbation. Animals were anesthetized with 100 μg of xylazine (ROMPUN 2%, Bayer, Lyon, France, 15 mg/kg) intraperitoneally and 100 μl of ketamine (IMALGENE100, Merial, Lyon, France, 80 mg/kg) for both sensitizations and challenges. Mice were sacrified by sublethal injection of dolethal (vetoquinol) on day 39 (FIG. 1A). For dynamic lung resistance measurements, mice were anesthetized with 200 μl of a ketamine-xylazine mix and paralyzed with 100 μl of rocuronium bromide (ESMERON, Organon, Kloosterstraat, The Netherlands, 10 mg/ml) intraperitoneally.
(§2) Derivative peptide (Derp 2.1) was purified as previously described by Chen et al. 1Peptide was injected on day 30 after de third challenge and on day 34 before the fourth challenge. Derp 2.1 was solubilized with sterile PBS to a final concentration of 100 μg/ml. pproximately 200 μl of a solution of Alum (Imject Alum, Thermo Scientific) containing 20 μg of the peptide was injected subcutaneously in the neck of the mice.
Dynamic lung resistances were measured using a flexiVent (SCIREQ, Emka). Mice were anesthetized and connected via an endotracheal cannula to a flexiVent system. […] Airway resistances wee continuously monitored and recorded according to manufacturer's instructions.

[2] = test system: mouse model of HDM-induced asthma; test: BAL cell counts by flow cytometry in mouse model of HDM-induced asthma; type: in vivo, BALB/c female mice; settings: 20 μg peptide in Alum subcutaneously on day 30 and day 34, BAL day 38
Method: as §1, with “Mice were sacrified by sublethal injection of dolethal (vetoquinol) on day 39 (FIG. 1A).” left out
as §2
One milliliter of sterile PBS was administered to mice through a flexible catheter. Cells and supernatants from the removed fluid were separated by centrifugation. The total cell number was determined by using flow cytometry (see below). Supernatants were stored at −20° C.
For analysis of BAL cells, the following antibodies were used: CD3 PE-Cy7, F4/80 FITC (eBioscience); CCR3 APC (R&D Systems) and Ly6G-PerCP Cy5.5 (BD Biosciences). Stained cells resuspended in PBS were acquired on a BD LSR II (BD Biosciences) and were analyzed on FlowJo software (Tree Star). To study lung, mediastinal lymph nodes (mLN) and spleen T-cell responses, these organs were removed and mechanically disrupted in RPMI 1640 media. Cells were passed through a 40 μm filter. Red blood cells from lung and spleen were lysed with a solution of Red Blood Cells lysis (Sigma Aldrich). Cells from mLN, lung and spleen were transferred to a 96-wells round-bottom plate and were stimulated for 5 hours with a mix containing phorbol 12-myristate 13-acetate (50 ng/ml) and ionomycin (500 ng/ml; Sigma-Aldrich) together. […]

Der p 2-specific IgE = Der p 2-specific IgE level in mouse model of HDM-induced asthma; type: in vivo, BALB/c female mice; settings: 20 μg peptide in Alum subcutaneously on day 30 and day 34; FIG. 1E serum level
Method: as §1, with “intraperitoneally. […]” for “intraperitoneally.”

[3] = test system: mouse model of HDM-induced asthma; test: Treg and natural killer cells by flow cytometry in mouse model of HDM-induced asthma; type: in vivo, BALB/c female mice; settings: 20 μg peptide in Alum subcutaneously on day 30 and day 34
Method: as §1, with “Mice were sacrified by sublethal injection of dolethal (vetoquinol) on day 39 (FIG. 1A). For dynamic lung resistance measurements, mice were anesthetized with 200 μl of a ketamine-xylazine mix and paralyzed with 100 μl of rocuronium bromide (ESMERON, Organon, Kloosterstraat, The Netherlands, 10 mg/ml) intraperitoneally.” left out
For analysis of BAL cells, the following antibodies were used: CD3 PE-Cy7, F4/80 FITC (eBioscience); CCR3 APC (R&D Systems) and Ly6G-PerCP Cy5.5 (BD Biosciences). Stained cells resuspended in PBS were acquired on a BD LSR II (BD Biosciences) and were analyzed on FlowJo software (Tree Star). […]

[4] = cited from earlier work; for in vivo allergenic activity and allergenicity: compared with the Derp 2 allergen; for immunogenicity: in vivo

Molecule | respiratory function (airway resistances and elastance to increasing doses of methacholine) [1] | respiratory function (airway resistances and elastance to increasing doses of methacholine) ([1]; listed as derp2.1) | airway hyperresponsiveness and asthma exacerbations ([1]; summary statement comparing Derp 2.1 with Der p 2.2) | eosinophils in BAL [2] | neutrophils in BAL [2] | eosinophils in BAL ([2]; listed as derp2.1) | neutrophils in BAL ([2]; listed as derp2.1) | Derp2 specific IgE (Der p 2-specific IgE) | regulators lymphocytes T (Treg cells) ([3]; FIG. 1F frequency of lung Treg cells) | natural killer cells ([3]; FIG. 1G number of lung natural killer cells) | in vivo allergenic activity and allergenicity [4] | immunogenicity [4]
Derp2.1: polypeptide having a sequence consisting of amino acids 18 to 70 of SEQ ID NO: 1 (Der p 2 fragment); rDer p 2.1 is the recombinant form from E. coli (DQVDVKDCANHEIKKVLVPGCHGSEPCIIHRGKPFQLEAVFEANQNTKTAKIE; listed as Dermatophagoides pteronyssinus) | improved | respiratory improvement | enables to decrease airway hyperresponsiveness and prevent asthma exacerbations | reduced | reduced | reduction | reduction | reduction | increase | reduction | less in vivo allergenic activity and allergenicity than the Derp 2 allergen | preserved immunogenicity
B1 |  |  |  |  |  |  |  |  |  |  | less in vivo allergenic activity and allergenicity than the Derp 2 allergen | preserved immunogenicity
